The values that follow come from patent US4599204A, “Oxalylamides useful as dental antiplaque agents and inhibitors of connective tissue destruction” (American Cyanamid Company, priority 1985, dated 1986).

Structures can show the parent of a compound that is named as a salt.

One experiment has as its system collagenase. Conditions: literature / U.S. Pat. No. 4,297,372; cited from earlier work.
The test system of experiment [1] is corneal ulceration. Conditions: human; cited from earlier work.
For experiment [2], the target named is T1, human skin fibroblast collagenase (Homo sapiens, UniProt P03956).
T1 construct: endogenous in cells; host or cells: human skin fibroblasts
T1 sequence (P03956 100-469): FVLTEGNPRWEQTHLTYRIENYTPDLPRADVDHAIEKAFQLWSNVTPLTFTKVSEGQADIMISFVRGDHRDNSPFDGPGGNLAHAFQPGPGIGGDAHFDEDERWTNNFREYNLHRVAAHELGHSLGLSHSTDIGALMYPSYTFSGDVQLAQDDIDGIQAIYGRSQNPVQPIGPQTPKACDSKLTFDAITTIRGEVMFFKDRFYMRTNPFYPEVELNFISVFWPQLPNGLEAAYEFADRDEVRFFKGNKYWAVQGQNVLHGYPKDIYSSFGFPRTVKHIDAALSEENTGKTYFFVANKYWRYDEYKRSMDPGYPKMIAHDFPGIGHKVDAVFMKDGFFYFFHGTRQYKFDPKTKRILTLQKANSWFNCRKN
As to the kind of experiment: Collagenase Assay, Test Code 006: degradation of 14C-labeled native collagen fibrils by collagenase. Format: biochemical. Conditions: ratio of weight (μg) for 50% inhibition over that of 6,6'-[ureylenebis(m-phenylenecarbonylimino)]bis[4-hydroxy-2-naphthalenesulfonic acid]disodium salt; test conc.: 30 μg/ml; 37° C., 16 hours; >1 = less active. Here is the method:
(i) Collagenase Assay--Test Code 006
A collagenase assay was performed by a modification of the method of Harper, et al., Biochem., 10, 3035 (1971). In a typical assay (total volume of 0.45 ml), 100 μl of the activated enzyme was added to the ^14 C-labeled collagen fibrils (250 μl) followed by 100 μl of 50 mM cacodylate, pH 7.4, containing 5 mM calcium chloride. After incubation at 37° C. for 16 hours, the tubes were centrifuged in a Beckman microfuge for five minutes at full speed. An aliquot (200 μl) of the supernatant, representing collagenase digestion products of the fibril, was assayed for radioactivity. The effect of the test compound on collagen degradation by collagenase was examined as follows:
Varying concentrations of the test compound (in distilled water) were added to the assay tubes containing active collagenase (total volume 450 μl) and after 16 hours the amount of radioactivity in the supernatant was determined. Appropriate blanks and trypsin controls were run in parallel.
The result is expressed as an ID50 collagenase value which represents a ratio of the weight (μg) of the representative compound required for 50% inhibition of collagenase over the weight (μg) of 6,6,-[ureylenebis(m-phenylenecarbonylimino)]bis[4-hydroxy-2-naphthalenesulfonic acid]disodium salt required for 50% inhibition of collagenase.

The nature of experiment [3]: Binding (competition) assay with 14C-6,6'-[ureylenebis(m-phenylenecarbonylimino)]bis[4-hydroxy-2-naphthalenesulfonic acid]disodium salt on tooth powder. Conditions: relative to 6,6'-[ureylenebis(m-phenylenecarbonylimino)]bis[4-hydroxy-2-naphthalenesulfonic acid]disodium salt; 1 mg tooth powder, PBS, 37° C., 60 minutes; >1 = less efficient. From the text: Using (radioactive) ^14 C-6,6'-[ureylenebis(m-phenylenecarbonylimino)]bis[4-hydroxy-2-naphthalenesulfonic acid]disodium salt a binding (competition) assay procedure is established which involves an insoluble substrate such as tooth powder which will bind the ^14 C-6,6'-[ureylenebis(m-phenylenecarbonylimino)]bis[4-hydroxy-2-naphthalenesulfonic acid]disodium salt. The amount of ^14 C-6,6'-[ureylenebis(m-phenylenecarbonylimino)]bis[4-hydroxy-2-naphthalenesulfonic acid]disodium salt bound is determined by washing away the unbound radioactive compound and counting CPM (counts per minute) of the insoluble tooth powder/^14 C-6,6'-[ureylenebis(m-phenylenecarbonylimino)]bis[4-hydroxy-2-naphthalenesulfonic acid]disodium salt complex. […] The inhibiting effect of the test compound on binding compared to non-radioactive 6,6'-[ureylenebis(m-phenylenecarbonylimino)]bis[4-hydroxy-2-naphthalenesulfonic acid]disodium salt was determined as follows: A one mg amount of tooth powder was incubated in one ml of phosphate buffered saline (PBS) with 10 μg of ^14 C-6,6'-[ureylenebis(m-phenylenecarbonylimino)]bis[4-hydroxy-2-naphthalenesulfonic acid]disodium salt and varying dose amounts (ranging from 0 to 2 mg) of the same cold (non-radioactive) compound. […]

The conditions of experiment [4]: mechanistic studies; cited from earlier work.
The nature of experiment [5]: Binding to insoluble collagenous structures.
The subject of experiment [6] is corneal ulceration. The conditions noted are these: alkali burned rabbit, applied to the eye; cited from earlier work.

As to `N[C@@H](CS)C(=O)O` [cysteine], the “collagenase inhibition (in words)” value in the experiment with collagenase is “collagenase inhibitors”. In the experiment on corneal ulceration [1], the “effectiveness in treatment of acute and chronic corneal ulceration” value is “effective in the treatment of acute and chronic corneal ulceration”.
As to `O=C(Nc1cccc(C(=O)Nc2ccc3cc(S(=O)(=O)O)cc(O)c3c2)c1)C(=O)Nc1cccc(C(=O)Nc2ccc3cc(S(=O)(=O)O)cc(O)c3c2)c1` [6,6'-[Oxalylbis(imino-m-phenylenecarbonylimino)]bis-[4-hydroxy-2-naphthalenesulfonic acid]disodium salt], in experiment [2], the “ID50 Collagenase Ratio” value is given as 1.10. Also, in experiment [3], the “ID50 Binding Ratio” value worked out at 1.00.
For `F` [Fluoride], the binding to enamel result in experiment [4] is reported as “binds to enamel”.
As to sodium auriothiomalate, the “collagenase inhibition (in words)” value in the experiment on collagenase was “collagenase inhibitors”.
Consider `O=C(Nc1cccc(C(=O)Nc2ccc3cc(S(=O)(=O)O)cc(O)c3c2)c1)Nc1cccc(C(=O)Nc2ccc3cc(S(=O)(=O)O)cc(O)c3c2)c1` [6,6'-[ureylenebis(m-phenylenecarbonylimino)]bis[4-hydroxy-2-naphthalenesulfonic acid]disodium salt], for which, in experiment [5], the “binding to insoluble collagenous structures” value was “will bind to insoluble collagenous structures such as teeth, dentin, gingiva and the like”; the “character of binding (saturability, reversibility)” value was “saturable and reversible”. In the experiment with collagenase, the “collagenase inhibition (in words)” value is reported as “established as an inhibitor of the degradation of collagen”.
As for `Cc1cc(-c2ccc(/N=N/c3c(S(=O)(=O)O)cc4cc(S(=O)(=O)O)cc(N)c4c3O)c(C)c2)ccc1/N=N/c1c(S(=O)(=O)O)cc2cc(S(=O)(=O)O)cc(N)c2c1O` [trypan blue], the “collagenase inhibition (in words)” value in the experiment with collagenase is “inhibiting the activity of collagenase, or a proteinase contaminant in the collagenase preparation”.
As to “α2 -macroglobulin: Naturally occurring collagenase inhibitors include the serum components α2 -macroglobulin”, the “collagenase inhibition (in words)” value in the experiment on collagenase is listed as “collagenase inhibitors”.
On to `c1cnc2c(c1)ccc1cccnc12` [1,10-phenanthroline], for which, in the experiment with collagenase, the “collagenase inhibition (in words)” value is on record as “collagenase inhibitors”.
Consider `O=C([O-])CN(CCN(CC(=O)[O-])CC(=O)[O-])CC(=O)[O-].[Ca+2].[Ca+2]` [Calcium ethylenediaminetetraacetate], for which the “reduction of frequency of ulceration” value in the experiment with corneal ulceration [6] is reported as “reduce the frequency of ulceration”.
On to `O[C@H](CS)[C@H](O)CS` (racemic) [dithiothreitol], for which the “collagenase inhibition (in words)” value in the experiment on collagenase was “collagenase inhibitors”.
For the molecule `CC(=O)N[C@@H](CS)C(=O)O` [acetylcysteine], in the experiment with corneal ulceration [6], the “reduction of frequency of ulceration” value is given as “reduce the frequency of ulceration”. Also, the “effectiveness in treatment of acute and chronic corneal ulceration” value in the experiment on corneal ulceration [1] is “effective in the treatment of acute and chronic corneal ulceration”.
For the molecule `Cc1ccc(C(=O)Nc2ccc(S(=O)(=O)O)c3cc(S(=O)(=O)O)cc(S(=O)(=O)O)c23)cc1NC(=O)c1cccc(NC(=O)Nc2cccc(C(=O)Nc3cc(C(=O)Nc4ccc(S(=O)(=O)O)c5cc(S(=O)(=O)O)cc(S(=O)(=O)O)c45)ccc3C)c2)c1` [Suramin], the “collagenase inhibition (in words)” value in the experiment with collagenase is “not inhibiting the action of collagenase”.
